The source made the active and inactive calls.

Broadly, the IC50 is the concentration that gives 50% inhibition. As a reminder, the CC50 is the concentration giving 50% cytotoxicity. The EC50 is the concentration needed to bring the measured effect to its halfway point. Usually AC50 stands for the concentration at which the activity in the assay is half-maximal.

The target in experiment [1] is T1, Aminopeptidase N (Plasmodium falciparum FcB1/Columbia, UniProt O96935).
T1 sequence (O96935 whole entry): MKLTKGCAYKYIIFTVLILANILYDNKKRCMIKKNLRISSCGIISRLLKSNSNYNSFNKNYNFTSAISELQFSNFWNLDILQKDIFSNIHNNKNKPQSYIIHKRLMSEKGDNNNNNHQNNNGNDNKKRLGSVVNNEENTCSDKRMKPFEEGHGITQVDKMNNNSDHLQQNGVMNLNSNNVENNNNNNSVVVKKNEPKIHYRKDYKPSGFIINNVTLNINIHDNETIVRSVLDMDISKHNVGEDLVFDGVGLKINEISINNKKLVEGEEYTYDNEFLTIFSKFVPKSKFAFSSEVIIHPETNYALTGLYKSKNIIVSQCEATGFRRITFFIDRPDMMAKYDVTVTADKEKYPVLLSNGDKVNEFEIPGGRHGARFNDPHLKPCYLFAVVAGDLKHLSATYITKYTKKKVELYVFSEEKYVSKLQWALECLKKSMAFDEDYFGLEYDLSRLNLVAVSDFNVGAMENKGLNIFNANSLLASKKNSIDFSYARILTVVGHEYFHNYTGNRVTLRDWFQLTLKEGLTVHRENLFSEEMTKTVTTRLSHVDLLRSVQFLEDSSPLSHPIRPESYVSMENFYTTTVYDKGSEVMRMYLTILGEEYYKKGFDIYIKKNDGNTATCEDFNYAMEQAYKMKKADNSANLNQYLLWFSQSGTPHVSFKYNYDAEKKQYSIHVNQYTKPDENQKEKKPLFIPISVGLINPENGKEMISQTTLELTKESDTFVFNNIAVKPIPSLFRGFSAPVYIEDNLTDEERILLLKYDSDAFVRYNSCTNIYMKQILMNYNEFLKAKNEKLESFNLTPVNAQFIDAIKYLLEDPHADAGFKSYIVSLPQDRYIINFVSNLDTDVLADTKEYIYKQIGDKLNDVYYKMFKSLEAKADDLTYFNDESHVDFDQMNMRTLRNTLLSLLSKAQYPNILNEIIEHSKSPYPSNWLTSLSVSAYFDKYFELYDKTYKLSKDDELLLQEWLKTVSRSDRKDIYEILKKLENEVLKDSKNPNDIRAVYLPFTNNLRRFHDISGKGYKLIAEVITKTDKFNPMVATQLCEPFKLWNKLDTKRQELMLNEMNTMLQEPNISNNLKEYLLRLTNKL
The experiment can be described thus: P. falciparum M1AAP inhibitors, biochemical, fluorogenic H-Leu-NHMec substrate, 1536-well (AID 1445). The arrangement: species or system Plasmodium falciparum 3D7, 3D7.

A short description of experiment [2]: cells.
Experiment [3] can be described thus: HEp-2 cell cytotoxicity, dose response, cytotoxicity control for RSV inhibitor project, HTS (AID 2410). The format is functional. The conditions noted are these: human respiratory syncytial virus.
Experiment [4] concerns the target Voltage-dependent T-type calcium channel subunit alpha-1H (Homo sapiens, UniProt O95180). The class given is functional.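 Also: channel activity triggered by adding a high calcium stimulation buffer.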
The nature of experiment [5]: Luminescence Cell-Based Dose Response to Identify Activators of 5'UTR Stem-Loop Driven Prion Protein mRNA Translation in H4-C Neuroglioblastoma Cells. [Related pubchem assays: 1829 (Project Summary), 1814 (Primary HTS)]. The format is functional.
Experiment [6] concerns H4. The experiment is described as follows: Luminescence Cell-Based Dose Response HTS to Identify Activators of 5'UTR Stem-Loop Driven Prion Protein mRNA Translation in H4 Neuroglioblastoma Cells. [Related pubchem assays: 1829 (Project Summary), 1814 (Primary HTS)]. The class given is functional. Particulars: Homo sapiens.
Experiment [7] is described as follows: Luminescence Cell-Based Dose Confirmation to Identify Activators of 5'UTR Stem-Loop Driven Alpha-Synuclein mRNA Translation in H4 Neuroglioblastoma Cells. [Related pubchem assays: 1829 (Project Summary), 1814 (Primary HTS)]. The format is functional.
The test system of experiment [8] is HeLa. The experiment can be described thus: HeLa cell cytotoxicity, dose response, cytotoxicity control for MITF activator project, CellTiter-Glo luminescence, cherry-pick samples (AID 540259). The class given is functional, cell-based. The conditions noted are these: Homo sapiens. A general note: ATP-based viability assays read luminescence as a measure of living cells.

Experiment [9] in a line: Luminescence Cell-Based Dose Response HTS to Identify Activators of Luciferase Translation or Activity in H4 […] Cells. [Related pubchem assays: 1829 (Project Summary), 1814 (Primary HTS)]. The class given is functional.
The nature of experiment [10]: Luminescence Cell-Based Dose Response to Identify Activators of Luciferase Translation or Activity in H4-C Neuroglioblastoma Cells. [Related pubchem assays: 1829 (Project Summary), 1814 (Primary HTS)]. The class given is functional.
Experiment [11] has as its target T2, Alkaline phosphatase, tissue-nonspecific isozyme (Homo sapiens, UniProt P05186).
T2 sequence (P05186 whole entry): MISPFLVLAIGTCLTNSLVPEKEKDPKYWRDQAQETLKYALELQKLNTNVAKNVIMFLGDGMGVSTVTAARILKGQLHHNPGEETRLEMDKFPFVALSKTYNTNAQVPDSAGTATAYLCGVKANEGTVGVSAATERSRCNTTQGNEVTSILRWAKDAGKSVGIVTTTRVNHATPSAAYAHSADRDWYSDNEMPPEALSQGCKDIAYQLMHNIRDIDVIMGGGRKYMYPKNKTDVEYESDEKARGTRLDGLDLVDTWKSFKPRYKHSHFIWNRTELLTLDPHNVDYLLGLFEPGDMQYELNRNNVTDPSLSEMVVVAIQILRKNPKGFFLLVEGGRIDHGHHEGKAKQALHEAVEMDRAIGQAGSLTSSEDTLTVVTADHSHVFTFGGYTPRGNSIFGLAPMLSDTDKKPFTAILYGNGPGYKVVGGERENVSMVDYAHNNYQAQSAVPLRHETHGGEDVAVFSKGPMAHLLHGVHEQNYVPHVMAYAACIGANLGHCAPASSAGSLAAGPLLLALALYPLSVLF
The experiment is described as follows: human TNAP enzyme inhibitors, SAR follow-up, biochemical, luminescent, dose response (AID 1056).

Experiment [12] has as its target Glyceraldehyde-3-phosphate dehydrogenase (Homo sapiens, UniProt P04406).
Experiment [13] deals with T3, Coagulation factor XII (Homo sapiens, UniProt P00748).
T3 sequence (P00748 whole entry): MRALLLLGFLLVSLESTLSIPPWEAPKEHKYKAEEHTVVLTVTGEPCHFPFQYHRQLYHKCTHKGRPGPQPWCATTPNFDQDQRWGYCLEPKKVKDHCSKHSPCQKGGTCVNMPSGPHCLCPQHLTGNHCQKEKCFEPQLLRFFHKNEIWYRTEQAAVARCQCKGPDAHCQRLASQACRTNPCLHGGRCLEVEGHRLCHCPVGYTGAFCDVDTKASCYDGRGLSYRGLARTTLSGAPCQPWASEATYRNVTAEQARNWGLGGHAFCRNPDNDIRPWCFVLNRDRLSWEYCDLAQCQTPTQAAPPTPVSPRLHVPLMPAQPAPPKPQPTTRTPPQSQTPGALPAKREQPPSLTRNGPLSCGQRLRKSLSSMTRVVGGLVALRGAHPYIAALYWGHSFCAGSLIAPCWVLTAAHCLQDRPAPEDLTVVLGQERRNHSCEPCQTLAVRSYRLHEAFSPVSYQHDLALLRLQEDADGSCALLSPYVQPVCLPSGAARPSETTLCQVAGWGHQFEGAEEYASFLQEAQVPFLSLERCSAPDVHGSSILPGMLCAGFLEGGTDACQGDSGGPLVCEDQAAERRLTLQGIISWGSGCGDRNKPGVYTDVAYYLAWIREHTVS
The format is functional.

Experiment [14] in a line: cytotoxicity in HEK-293T cells, dose response, cytotoxicity control for BCR NF-kB inhibitor project, luminescence, B-cell screen hits (AID 489021).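 Also: HEK-293T cells carrying an NF-kB luciferase reporter; cells exposed to compound for about 14 hours before viability readout.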 The format is functional, cell-based.
In experiment [15] the test system is INS1. The experiment can be described thus: beta cell apoptosis inhibitors, cytokine rescue, dose response, luminescence, retest (AID 449756).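 Also: cell death triggered by IL-1 beta plus TNF-alpha plus IFN-gamma mixture; protective hits raise ATP signal compared with cytokine alone wells.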 The format is functional, cell-based. Particulars: Rattus norvegicus.
Experiment [16] in a line: Luminescence-based cell-based high throughput dose response assay to identify activators of the DAF-12 from the parasite S. stercoralis (ssDAF-12). The format is functional.
Experiment [17] addresses T4, Luciferin 4-monooxygenase (Photinus pyralis, UniProt P08659). The experiment can be described thus: firefly luciferase enzyme inhibitors, dose response, biochemical, luminescence (AID 1891).
Experiment [18] deals with T4, Luciferin 4-monooxygenase. The experiment is described as follows: Counter Screen for Luciferase-based Assay Positives. [Related pubchem assays: 620, 618, 411 ]. (In general: Counterscreens check selectivity or assay interference.)
In experiment [19] the target is Prothrombin (Homo sapiens, UniProt P00734). The experiment is described as follows: Thrombin 1536 HTS Dose Response Confirmation. [Related pubchem assays: 1046 (Thrombin 1536 HTS; hits were confirmed in this assay)]. The class given is functional.
Experiment [20] deals with HT-1080. The experiment can be described thus: cytotoxicity in HT1080 fibrosarcoma cells, cell-based, fluorescence readout (AID 620). The conditions noted are these: Homo sapiens. The format is functional.
Experiment [21] is described as follows: Luminescence Cell-Based Dose Confirmation HTS to Identify Inhibitors of Platelet Dense Granule Release. [Related pubchem assays: 1663 (Primary HTS), 1678 (Summary of Project)]. The class given is functional.
Experiment [22] in a line: Vero E6 cell cytotoxicity, dose response, cytotoxicity control for non-replicating M. tuberculosis project, secondary assay (AID 492998). The class given is functional, VeroE6. Particulars: Vero C1008.
Experiment [23] in a line: THP-1 cell cytotoxicity, dose response, cytotoxicity control for non-replicating M. tuberculosis project (AID 489025). The format is functional.
Experiment [24] in a line: HepG2 cell cytotoxicity, dose response, cytotoxicity control for non-replicating M. tuberculosis project (AID 489018). The format is functional. Particulars: Mycobacterium tuberculosis.
The nature of experiment [25]: cytotoxicity toward NIH3T3 fibroblasts, dose response, counter-screen, cell-based, ATP luminescence, mouse fibroblasts (AID 2010).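 Also: cells exposed to compound for about 90 hours before reading.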 The class given is functional.
The nature of experiment [26]: inhibitors of intracellular T. cruzi replication, confirmation, NIH3T3 host cells, beta-gal luminescence (AID 2044).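 Also: intracellular parasites grown in NIH/3T3 mouse fibroblasts as host cells; luminescent beta-galactosidase reporter signal from transgenic T. cruzi replicating inside host cells; inhibitors lower the luminescence signal.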 The class given is functional, cell-based.

T4 sequence (P08659 whole entry): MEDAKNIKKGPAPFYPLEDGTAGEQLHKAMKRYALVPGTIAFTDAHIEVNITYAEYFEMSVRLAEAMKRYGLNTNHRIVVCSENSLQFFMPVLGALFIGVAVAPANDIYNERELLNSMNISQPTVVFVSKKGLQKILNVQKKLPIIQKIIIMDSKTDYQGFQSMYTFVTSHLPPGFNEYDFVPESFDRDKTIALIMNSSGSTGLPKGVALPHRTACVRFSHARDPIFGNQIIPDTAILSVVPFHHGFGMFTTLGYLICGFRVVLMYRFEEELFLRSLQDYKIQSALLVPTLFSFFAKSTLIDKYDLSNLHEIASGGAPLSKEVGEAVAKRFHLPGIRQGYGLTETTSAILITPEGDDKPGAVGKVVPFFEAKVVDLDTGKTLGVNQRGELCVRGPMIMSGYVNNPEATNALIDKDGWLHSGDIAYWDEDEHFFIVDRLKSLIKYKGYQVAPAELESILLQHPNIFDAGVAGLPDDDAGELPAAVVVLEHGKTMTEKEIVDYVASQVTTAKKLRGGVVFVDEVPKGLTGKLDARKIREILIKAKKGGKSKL
Sequence of Glyceraldehyde-3-phosphate dehydrogenase (P04406 whole entry): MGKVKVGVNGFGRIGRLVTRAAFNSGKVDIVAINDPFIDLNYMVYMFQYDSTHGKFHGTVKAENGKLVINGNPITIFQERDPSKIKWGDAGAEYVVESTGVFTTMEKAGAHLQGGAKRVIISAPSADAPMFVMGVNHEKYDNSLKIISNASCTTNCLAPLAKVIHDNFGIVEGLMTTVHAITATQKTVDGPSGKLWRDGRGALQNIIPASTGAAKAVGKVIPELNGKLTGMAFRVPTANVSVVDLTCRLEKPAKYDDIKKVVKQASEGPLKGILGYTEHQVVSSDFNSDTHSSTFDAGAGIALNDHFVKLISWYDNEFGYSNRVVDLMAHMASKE
Sequence of Voltage-dependent T-type calcium channel subunit alpha-1H (O95180 whole entry): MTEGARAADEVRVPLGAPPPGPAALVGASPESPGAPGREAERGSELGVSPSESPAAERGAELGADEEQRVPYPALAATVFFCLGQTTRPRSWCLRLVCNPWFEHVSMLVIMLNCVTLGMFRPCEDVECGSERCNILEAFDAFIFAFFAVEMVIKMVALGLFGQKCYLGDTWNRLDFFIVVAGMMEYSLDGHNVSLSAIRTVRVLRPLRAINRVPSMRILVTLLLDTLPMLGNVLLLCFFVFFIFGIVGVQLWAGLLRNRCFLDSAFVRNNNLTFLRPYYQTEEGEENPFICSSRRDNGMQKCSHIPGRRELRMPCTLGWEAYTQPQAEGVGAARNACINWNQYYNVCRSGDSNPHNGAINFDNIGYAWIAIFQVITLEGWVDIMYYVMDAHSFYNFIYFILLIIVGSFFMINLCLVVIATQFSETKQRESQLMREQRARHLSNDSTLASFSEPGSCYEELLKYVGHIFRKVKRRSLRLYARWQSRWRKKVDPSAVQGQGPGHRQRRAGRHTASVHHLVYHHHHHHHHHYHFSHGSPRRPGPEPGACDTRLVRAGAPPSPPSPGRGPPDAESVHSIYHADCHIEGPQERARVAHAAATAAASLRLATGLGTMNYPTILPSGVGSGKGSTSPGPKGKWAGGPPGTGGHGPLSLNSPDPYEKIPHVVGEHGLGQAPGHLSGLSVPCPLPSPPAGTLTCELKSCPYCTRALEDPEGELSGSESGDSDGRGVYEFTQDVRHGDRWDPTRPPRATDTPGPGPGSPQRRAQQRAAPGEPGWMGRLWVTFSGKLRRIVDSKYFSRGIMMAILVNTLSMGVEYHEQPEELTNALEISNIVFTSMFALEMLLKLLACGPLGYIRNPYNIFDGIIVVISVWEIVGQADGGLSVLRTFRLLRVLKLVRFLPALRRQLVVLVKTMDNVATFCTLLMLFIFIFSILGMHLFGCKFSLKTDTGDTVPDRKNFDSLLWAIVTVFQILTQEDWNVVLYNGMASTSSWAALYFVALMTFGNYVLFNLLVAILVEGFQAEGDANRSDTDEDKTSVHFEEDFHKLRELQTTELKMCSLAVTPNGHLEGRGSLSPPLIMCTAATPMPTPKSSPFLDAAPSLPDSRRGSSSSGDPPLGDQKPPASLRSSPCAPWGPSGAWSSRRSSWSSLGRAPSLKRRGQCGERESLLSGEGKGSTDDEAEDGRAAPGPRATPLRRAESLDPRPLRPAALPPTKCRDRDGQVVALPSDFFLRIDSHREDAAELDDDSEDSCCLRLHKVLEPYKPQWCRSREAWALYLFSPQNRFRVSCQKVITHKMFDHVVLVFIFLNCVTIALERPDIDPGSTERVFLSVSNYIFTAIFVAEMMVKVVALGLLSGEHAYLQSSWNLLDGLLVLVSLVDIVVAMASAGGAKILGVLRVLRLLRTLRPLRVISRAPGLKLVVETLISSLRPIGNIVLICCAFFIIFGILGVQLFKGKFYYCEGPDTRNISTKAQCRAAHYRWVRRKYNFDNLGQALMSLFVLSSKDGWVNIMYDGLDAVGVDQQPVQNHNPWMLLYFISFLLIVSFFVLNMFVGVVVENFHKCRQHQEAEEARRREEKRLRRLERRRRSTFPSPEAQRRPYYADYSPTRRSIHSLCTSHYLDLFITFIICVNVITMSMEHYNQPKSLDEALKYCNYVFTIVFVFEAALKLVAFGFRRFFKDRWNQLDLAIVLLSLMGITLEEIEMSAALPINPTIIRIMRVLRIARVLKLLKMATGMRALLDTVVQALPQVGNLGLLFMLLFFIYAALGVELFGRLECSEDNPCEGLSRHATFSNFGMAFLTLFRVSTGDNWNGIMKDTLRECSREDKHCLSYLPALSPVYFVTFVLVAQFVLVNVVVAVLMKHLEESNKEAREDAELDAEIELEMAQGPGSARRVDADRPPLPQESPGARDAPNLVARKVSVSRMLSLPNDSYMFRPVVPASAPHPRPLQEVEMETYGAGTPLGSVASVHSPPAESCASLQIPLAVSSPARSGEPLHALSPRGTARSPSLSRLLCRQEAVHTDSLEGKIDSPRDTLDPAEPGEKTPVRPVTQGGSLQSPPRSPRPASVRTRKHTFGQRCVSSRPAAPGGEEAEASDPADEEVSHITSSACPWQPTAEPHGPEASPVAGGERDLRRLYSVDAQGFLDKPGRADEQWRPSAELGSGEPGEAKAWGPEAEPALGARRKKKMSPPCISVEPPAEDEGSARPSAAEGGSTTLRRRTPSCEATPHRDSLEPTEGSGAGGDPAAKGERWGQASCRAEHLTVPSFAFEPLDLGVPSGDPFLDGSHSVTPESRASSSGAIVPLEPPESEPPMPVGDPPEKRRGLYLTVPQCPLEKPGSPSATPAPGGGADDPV

For the compound `COc1ccc(/C=C2/SC(=O)N(NS(=O)(=O)c3ccccc3)C2=S)cc1OC`, the IC50 is 30.5 µM (active) in experiment [1] and 18.8 µM (active) in [2]. In experiment [3], the 50% cytotoxic concentration (CC50) was 31.5 µM (active).

Consider `Cc1ccc(CCNC(=O)C[S+]([O-])Cc2nc(-c3cccc(C)c3)oc2C)cc1` (centres undefined), for which the EC50 in experiment [4] was 4.04 µM (active).

Regarding `Clc1ccc(-c2cn3c(n2)CCC3)cc1`, the EC50 in experiment [5] was 0.397 µM (active); in experiment [6], > 120 µM (not active); in [7] it was 0.319 µM (active); in [9] it was < 0.1 µM (active); in experiment [10], 0.299 µM (active). For the same compound, the AC50 in [8] was 173 µM (active).

Consider `CCOC(=O)c1[nH]nc2c1COc1ccccc1-2`, for which the results for the IC50 in [11] and in experiment [12] were > 100 µM (inactive) and > 100 µM (not active), respectively.

Regarding `CN(C)C1=C(Cl)C(=O)N(c2nnc(Cc3ccccc3)[nH]2)C1=O`, the IC50 in experiment [11] is 4.49 µM (active); in experiment [12] it was > 100 µM (not active).

As for `COc1ccc(Nc2nnc(SC(C(=O)Nc3cc(C)ccc3C)c3ccccc3)s2)cc1` (centres undefined), the IC50 in experiment [13] is > 50 µM (inactive).

With `CCN1C(=O)c2cccc3c(S(=O)(=O)NCC4CCCO4)ccc1c23` (centres undefined), the IC50 in experiment [14] was > 80 µM (inactive).

Take `O=C(Nc1ccc(OCC(=O)N2CCC(Cc3ccccc3)CC2)cc1)c1ccco1`: the EC50 in experiment [4] is 2.36 µM (active). Besides, the AC50 in experiment [15] is 5.93 µM (active).

Take `Oc1cccc(-c2nc3ccccc3s2)c1`: the values for the IC50 in experiment [16] and in [19] were > 67.6 µM (inactive) and > 50 µM (not active), respectively. Besides, the EC50 is 1.83 µM (active) in experiment [17], 12.4 µM (active) in experiment [18], > 50 µM (not active) in experiment [20] and 22.2 µM (active) in experiment [21].

Consider `Nc1ccc(-c2cc(C(=O)O)n[nH]2)cc1`, for which the results for the IC50 in experiment [11] and in [12] were 8.69 µM (active) and > 100 µM (not active), respectively.

As to `CCCCCCn1c(-c2ccco2)nc2oc3cc(OC)ccc3c(=O)c2c1=O`, the IC50 in experiment [14] was > 80 µM (inactive).

Regarding `CN1CCN(c2ncnc3c2cnn3-c2ccc(Cl)cc2)CC1`, the concentration for a half-maximal effect (EC50) in experiment [18] is 0.55 µM (active); in [20], > 50 µM (not active).

Take `O=C(Nc1ccc(C(F)(F)F)cc1[N+](=O)[O-])O[C@H]1[C@H](Cc2ccccc2)NS(=O)(=O)[C@H]2C[C@@H]3C=C[C@]12O3`: in experiment [2], the IC50 is 24.6 µM (active). Also, the CC50 in experiment [3] was 23 µM (active).

As to `CS(=O)(=O)N(CC(=O)N/N=C/c1ccccc1C(=O)O)c1cccc(Cl)c1Cl`, in experiment [13], the IC50 was > 50 µM (inactive).

For `C/C(=N\NC(=O)c1ccc(CN2CCc3ccccc3C2)cc1)c1ccccc1O`, the results for the CC50 in [22], in [23] and in experiment [24] were 13.9 µM (active), 15.3 µM (active) and 10.7 µM (active), respectively. For the same compound, the EC50 was 3.88 µM (active) in [25] and 1.06 µM (active) in experiment [26].

`O=C(/C=C\Nc1ccccn1)c1ccc(Cl)cc1`: the EC50 in experiment [18] is 2.45 µM (active); in [20], > 50 µM (not active).

For the origin of these results see ChEMBL document CHEMBL1201862, “PubChem BioAssay data set” (2004).
